The target of series [1] is Insulin-like growth factor 1 receptor (Homo sapiens) (UniProt P08069). The series is described as follows: Inhibition of IGF-IR (711 to 1377 residues) (unknown origin) expressed in baculovirus-infected Sf9 cells at 20 uM incubated for 8 mins by colorimetry based assay relative to control.
The test system of series [2] is DiFi. As to the kind of experiment: Induction of apoptosis in human DiFi cells at 1 uM incubated for 24 hrs by PI staining based flow cytometry analysis (reference value: 2.3%). Format: functional. On the technique in general: Flow cytometry measures light scatter and fluorescence of single cells or particles in a stream.
The subject of series [3] is DiFi. The series is described as follows: Induction of cell cycle arrest in human DiFi cells assessed as decrease in cell percentage in S phase at 1 uM measured after 24 hrs by BrdUrd incorporation based flow cytometry analysis (reference value: 14 +- 0.5%). The arrangement: scale not given: the % may be the effect or the level left. Format: functional.
Series [4] concerns DiFi. The series is described as follows: Induction of apoptosis in human DiFi cells assessed as accumulation of cells at sub-G1 phase at 1 uM measured after 24 hrs in presence of IGF-1 by PI staining based flow cytometry analysis. Format: functional, cell-based.
For series [5], the system named is DiFi. The series is described as follows: Induction of cell cycle arrest in human DiFi cells assessed as accumulation of cells at G1 phase at 1 uM incubated for 24 hrs in presence of IGF-1 by PI staining based flow cytometry analysis (reference value: 64%). Format: functional.
The target of series [6] is Insulin receptor (Homo sapiens) (UniProt P06213). The series is described as follows: Inhibition of human recombinant insulin receptor expressed in baculovirus at 10 uM incubated for 8 mins by colorimetry based assay.
Series [7] deals with DiFi. As to the kind of experiment: Induction of apoptosis in human DiFi cells assessed as protection of annexin V-FITC binding at 1 uM incubated for 24 hrs in presence of IGF-1 by annexin V-FITC and PI staining based flow cytometry analysis relative to control. Format: functional.
The test system of series [8] is HN5. As to the kind of experiment: Induction of cell cycle arrest in human HN5 cells assessed as reduction in accumulation of cells in S phase at 1 uM measured after 48 hrs by PI staining based flow cytometry analysis (reference value: 55%). Format: functional. The arrangement: scale not given: the % may be the effect or the level left.
The test system of series [9] is DiFi. The series is described as follows: Induction of PARP cleavage in human DiFi cells assessed as increase in Mr 85000 fragments at 8 ug/ml […] incubated for 24 hrs by Western blotting analysis. To be noted: dose 8.0 µg/ml. Format: functional, cell-based.
The subject of series [10] is HN5. The series is described as follows: Antiproliferative activity against human HN5 cells assessed as inhibition of cell viability at 50 nM. Format: functional, cell-based.
The target of series [11] is Insulin receptor (Homo sapiens) (UniProt P06213). As to the kind of experiment: Inhibition of insulin induced phosphorylation of insulin receptor in serum starved human HN5 cells at 1 uM preincubated for 1 hr followed by insulin stimulation and measured after 5 mins by immunoblot analysis. As to conditions: time 65.0 min. Format: cell-based. Background: Immunoblotting shows a protein as a band on a membrane.

Series [12] relates to DiFi. The series is described as follows: Antiproliferative activity against human DiFi cells assessed as percentage of viable cells at 1 uM measured after 24 hrs by coulter counter method (reference value: 98+/-0.8%). Format: functional.
Series [13] relates to DiFi. As to the kind of experiment: Induction of cell cycle arrest in human DiFi cells assessed as accumulation of cells at S phase at 1 uM incubated for 24 hrs in presence of IGF-1 by PI staining based flow cytometry analysis (reference value: 8 %). Format: functional.
The subject of series [14] is HN5. The series is described as follows: Antiproliferative activity against human HN5 cells assessed as inhibition of cell viability at 250 nM relative to control. Format: functional.
For series [15], the system named is DiFi. As to the kind of experiment: Induction of cell cycle arrest in human DiFi cells assessed as increase in cell percentage in G1 phase at 0.1 uM measured after 24 hrs by BrdUrd incorporation based flow cytometry analysis (reference value: 82 +- 0.9%). Format: functional.
In series [16] the test system is HN5. As to the kind of experiment: Induction of cell cycle arrest in human HN5 cells assessed as increase in accumulation of cells in G1 phase at 1 uM measured after 48 hrs by PI staining based flow cytometry analysis (reference value: 24%). Format: functional.
The subject of series [17] is DiFi. The series is described as follows: Induction of cell cycle arrest in human DiFi cells assessed as accumulation of cells at G2 phase at 1 uM incubated for 24 hrs by PI staining based flow cytometry analysis (reference value: 28%). Format: functional.
For series [18], the system named is DiFi. As to the kind of experiment: Induction of apoptosis in human DiFi cells at 1 uM measured after 24 hrs in presence of IGF-1 by annexin V-FITC and PI staining based flow cytometry analysis (reference value: 6%). Format: functional.
The test system of series [19] is DiFi. As to the kind of experiment: Induction of cell cycle arrest in human DiFi cells assessed as accumulation of cells at G1 phase at 1 uM incubated for 24 hrs by PI staining based flow cytometry analysis (reference value: 64%). Format: functional.
In series [20] the test system is DiFi. The series is described as follows: Induction of cell cycle arrest in human DiFi cells assessed as increase in cell percentage in G1 phase at 1 uM measured after 24 hrs by BrdUrd incorporation based flow cytometry analysis (reference value: 82 +- 0.9%). Format: functional.
Series [21] relates to DiFi. The series is described as follows: Induction of apoptosis in human DiFi cells assessed as decrease in number of normal cells at 1 uM incubated for 24 hrs by annexin V-FITC and PI staining based flow cytometry analysis. Format: functional, cell-based.
Series [22] concerns DiFi. The series is described as follows: Induction of PARP cleavage in human DiFi cells assessed as increase in Mr 85000 fragments at 1 uM incubated for 24 hrs in presence of IGF-1 by Western blotting analysis. Format: functional, cell-based.
In series [23] the test system is DiFi. As to the kind of experiment: Induction of PARP cleavage in human DiFi cells assessed as increase in Mr 85000 fragments at 1 uM incubated for 24 hrs by Western blotting analysis. Format: functional, cell-based.
Series [24] is described as follows: Antiproliferative activity against raf-transformed mouse NIH3T3 cells assessed as inhibition of cell viability. Format: toxicity, cell-based.
Series [25] deals with DiFi. The series is described as follows: Induction of apoptosis in human DiFi cells assessed as DNA fragmentation at 1 uM measured after 24 hrs in presence of IGF-1 by agarose gel electrophoresis analysis. Format: functional, cell-based.
Series [26] concerns DiFi. The series is described as follows: Induction of apoptosis in human DiFi cells at 1 uM measured after 24 hrs by annexin V-FITC and PI staining based flow cytometry analysis (reference value: 6%). Format: functional.
The target of series [27] is Insulin-like growth factor 1 receptor (Homo sapiens) (UniProt P08069). The series is described as follows: Inhibition of insulin induced phosphorylation of IRS-1 in serum starved human HN5 cells at 1 uM preincubated for 1 hr followed by insulin stimulation and measured after 5 mins by immunoblot analysis. Format: cell-based. To be noted: time 65.0 min.
Series [28] concerns DiFi. As to the kind of experiment: Induction of apoptosis in human DiFi cells assessed as DNA fragmentation by measuring DNA ladders at 1 uM measured after 24 hrs by agarose gel electrophoresis analysis. Format: functional, cell-based.
The subject of series [29] is DiFi. The series is described as follows: Induction of cell cycle arrest in human DiFi cells assessed as accumulation of cells at S phase at 1 uM incubated for 24 hrs by PI staining based flow cytometry analysis (reference value: 8 %). Format: functional.
The test system of series [30] is DiFi. The series is described as follows: Induction of apoptosis in human DiFi cells at 1 uM incubated for 24 hrs in presence of IGF-1 by PI staining based flow cytometry analysis (reference value: 2.3%). Format: functional.
Series [31] concerns DiFi. As to the kind of experiment: Induction of cell cycle arrest in human DiFi cells assessed as accumulation of cells at G2 phase at 1 uM incubated for 24 hrs in presence of IGF-1 by PI staining based flow cytometry analysis (reference value: 28%). Format: functional.
Series [32] deals with DiFi. As to the kind of experiment: Induction of apoptosis in human DiFi cells assessed as increase in number of necrotic cells at 1 uM incubated for 24 hrs by annexin V-FITC and PI staining based flow cytometry analysis. Format: functional, cell-based.
The subject of series [33] is DiFi. As to the kind of experiment: Induction of apoptosis in human DiFi cells assessed as accumulation of cells at sub-G1 phase at 1 uM measured after 24 hrs by PI staining based flow cytometry analysis. Format: functional, cell-based.
The subject of series [34] is DiFi. The series is described as follows: Induction of PARP cleavage in human DiFi cells assessed as decrease in Mr 116000 fragments at 1 uM incubated for 24 hrs in presence of IGF-1 by Western blotting analysis. Format: functional, cell-based.
Series [35] deals with DiFi. As to the kind of experiment: Induction of cell cycle arrest in human DiFi cells assessed as decrease in cell percentage in S phase at 0.1 uM measured after 24 hrs by BrdUrd incorporation based flow cytometry analysis (reference value: 14 +- 0.5%). Format: functional. Also on record: scale not given: the % may be the effect or the level left.
Series [36] concerns the target Insulin-like growth factor 1 receptor (Homo sapiens) (UniProt P08069). As to the kind of experiment: Inhibition of IGF-IR (711 to 1377 residues) (unknown origin) expressed in baculovirus-infected Sf9 cells at 10 uM incubated for 8 mins by colorimetry based assay.
Series [37] relates to DiFi. The series is described as follows: Induction of PARP cleavage in human DiFi cells assessed as decrease in Mr 116000 fragments at 1 uM incubated for 24 hrs by Western blotting analysis. Format: functional, cell-based.
Series [38] relates to HN5. As to the kind of experiment: Induction of apoptosis in human HN5 cells assessed as decrease in cell population at 1 uM measured after 24 hrs by PI staining based flow cytometry analysis. Format: functional.

Structures are written as SMILES. Active and inactive are the calls of the source. No cut-off for these calls is given here.

Sequence of Insulin-like growth factor 1 receptor (Homo sapiens) (P08069 31-736 limits assumed): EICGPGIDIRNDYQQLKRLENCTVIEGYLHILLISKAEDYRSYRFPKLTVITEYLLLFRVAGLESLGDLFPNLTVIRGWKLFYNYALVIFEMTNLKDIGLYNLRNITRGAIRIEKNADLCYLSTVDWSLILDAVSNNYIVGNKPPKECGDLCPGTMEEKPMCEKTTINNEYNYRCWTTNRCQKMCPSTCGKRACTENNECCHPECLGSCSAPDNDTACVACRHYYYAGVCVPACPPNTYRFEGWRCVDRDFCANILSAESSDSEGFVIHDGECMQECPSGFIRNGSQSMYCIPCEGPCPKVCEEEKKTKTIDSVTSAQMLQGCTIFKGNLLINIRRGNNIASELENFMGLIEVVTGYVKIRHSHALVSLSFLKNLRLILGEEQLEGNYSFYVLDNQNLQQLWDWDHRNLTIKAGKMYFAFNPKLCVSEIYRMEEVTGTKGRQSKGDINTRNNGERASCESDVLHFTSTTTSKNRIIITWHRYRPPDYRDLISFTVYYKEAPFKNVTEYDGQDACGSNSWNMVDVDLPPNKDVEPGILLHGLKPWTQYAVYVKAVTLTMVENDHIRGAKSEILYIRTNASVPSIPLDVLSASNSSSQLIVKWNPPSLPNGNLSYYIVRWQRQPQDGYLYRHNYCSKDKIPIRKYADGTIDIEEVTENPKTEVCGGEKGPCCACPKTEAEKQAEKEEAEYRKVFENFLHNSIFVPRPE
Sequence of Insulin-like growth factor 1 receptor (Homo sapiens) (P08069 741-1367 limits assumed): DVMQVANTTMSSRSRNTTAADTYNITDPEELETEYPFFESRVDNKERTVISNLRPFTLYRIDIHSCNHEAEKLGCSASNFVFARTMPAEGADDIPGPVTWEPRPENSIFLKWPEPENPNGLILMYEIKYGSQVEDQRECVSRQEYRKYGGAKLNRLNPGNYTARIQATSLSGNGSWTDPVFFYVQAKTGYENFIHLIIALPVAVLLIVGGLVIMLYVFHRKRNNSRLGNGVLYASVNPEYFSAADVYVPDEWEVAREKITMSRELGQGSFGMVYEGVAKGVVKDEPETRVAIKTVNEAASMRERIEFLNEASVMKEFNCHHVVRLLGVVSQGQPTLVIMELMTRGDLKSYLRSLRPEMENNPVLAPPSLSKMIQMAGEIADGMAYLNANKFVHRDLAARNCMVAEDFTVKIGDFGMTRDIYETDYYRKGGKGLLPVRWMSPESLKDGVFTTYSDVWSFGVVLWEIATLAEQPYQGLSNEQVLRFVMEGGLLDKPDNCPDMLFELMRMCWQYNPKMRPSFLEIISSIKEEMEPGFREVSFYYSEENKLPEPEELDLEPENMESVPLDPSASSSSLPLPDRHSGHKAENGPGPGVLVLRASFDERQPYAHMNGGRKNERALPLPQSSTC
Sequence of Insulin receptor (Homo sapiens) (P06213 28-758 limits assumed): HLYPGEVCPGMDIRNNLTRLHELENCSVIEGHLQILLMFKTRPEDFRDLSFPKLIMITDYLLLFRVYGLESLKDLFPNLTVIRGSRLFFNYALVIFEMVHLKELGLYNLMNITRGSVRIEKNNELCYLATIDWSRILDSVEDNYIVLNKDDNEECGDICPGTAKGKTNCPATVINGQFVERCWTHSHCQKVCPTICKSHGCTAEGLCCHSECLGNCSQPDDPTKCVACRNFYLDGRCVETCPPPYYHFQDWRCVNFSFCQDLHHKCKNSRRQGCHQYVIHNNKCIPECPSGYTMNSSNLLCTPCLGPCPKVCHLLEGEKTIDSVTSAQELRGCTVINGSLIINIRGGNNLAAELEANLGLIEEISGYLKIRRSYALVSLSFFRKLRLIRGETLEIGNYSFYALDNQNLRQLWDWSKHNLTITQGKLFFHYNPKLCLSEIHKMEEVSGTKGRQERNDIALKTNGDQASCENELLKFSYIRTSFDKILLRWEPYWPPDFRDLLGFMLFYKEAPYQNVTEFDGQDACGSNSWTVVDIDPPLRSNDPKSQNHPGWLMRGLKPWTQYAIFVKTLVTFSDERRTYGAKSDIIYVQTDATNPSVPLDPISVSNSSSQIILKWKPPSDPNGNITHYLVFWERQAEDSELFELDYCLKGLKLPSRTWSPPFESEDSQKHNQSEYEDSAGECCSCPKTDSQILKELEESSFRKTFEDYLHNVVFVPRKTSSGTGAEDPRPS
Sequence of Insulin receptor (Homo sapiens) (P06213 763-1382 limits assumed): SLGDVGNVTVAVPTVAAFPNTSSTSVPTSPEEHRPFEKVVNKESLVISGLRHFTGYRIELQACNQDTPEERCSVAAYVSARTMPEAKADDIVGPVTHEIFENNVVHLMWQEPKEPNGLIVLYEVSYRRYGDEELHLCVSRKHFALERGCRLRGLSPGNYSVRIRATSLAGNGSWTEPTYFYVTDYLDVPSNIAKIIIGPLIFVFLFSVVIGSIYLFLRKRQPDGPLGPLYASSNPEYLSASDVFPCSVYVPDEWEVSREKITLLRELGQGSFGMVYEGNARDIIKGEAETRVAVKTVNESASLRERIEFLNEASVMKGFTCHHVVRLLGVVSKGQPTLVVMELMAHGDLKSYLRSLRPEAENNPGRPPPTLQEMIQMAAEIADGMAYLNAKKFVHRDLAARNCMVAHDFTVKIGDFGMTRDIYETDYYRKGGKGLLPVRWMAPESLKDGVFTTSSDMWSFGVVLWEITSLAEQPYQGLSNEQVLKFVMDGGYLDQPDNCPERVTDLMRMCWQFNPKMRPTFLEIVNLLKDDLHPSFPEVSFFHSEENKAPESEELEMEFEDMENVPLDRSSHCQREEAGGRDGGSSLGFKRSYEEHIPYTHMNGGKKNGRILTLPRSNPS

As for `N#CC(C#N)=Cc1cc(O)c(O)c(O)c1`, the inhibition in series [1] is 50%.
In the case of `C#Cc1cccc(Nc2ncnc3cc(OCCOC)c(OCCOC)cc23)c1` [ERLOTINIB], the Activity in the series on DiFi [2] worked out at 17%; in the series with DiFi [3], 0.7%; in the series with DiFi [5], 77%; with DiFi [7], 100%; in the series on HN5 [8] it was 24%; in the series on DiFi [12], 97%. Also, the Activity with DiFi [13] is on record as 2%; with HN5 [14], 100%; with DiFi [15] it was 85%; with HN5 [16], 56%; with DiFi [17], 18%; in the series with DiFi [18] it was 6%. Besides, the Activity in the series on DiFi [19] is 77%; with DiFi [20], 95%; in the series on DiFi [26] it was 21%; in the series on DiFi [29], 5%; in the series with DiFi [30], 7.4%; in the series on DiFi [31] it was 21%. Further, the Activity with DiFi [35] came out at 9%. Further, the outcome with DiFi [4], in the series with DiFi [22], in the series with DiFi [25], with DiFi [32] and in the series with DiFi [34] was inactive. Also, the inhibition entry in series [6], in [11], in [27] and in series [36] was “inactive” in each case. The result with DiFi [9], in the series with HN5 [10], in the series with DiFi [21], in the series on DiFi [23], with DiFi [28] and with DiFi [33] was Active. Moreover, the outcome in the series on DiFi [37] and with HN5 [38] was Active. The half-maximal inhibitory concentration (IC50) in [24] is 7 µM.

For orientation: inhibition means the share of the control response that was lost under treatment. One may read the IC50 as the midpoint of a concentration-inhibition curve.

These data come from ChEMBL document CHEMBL5653635, “Induction of apoptosis and cell cycle arrest by CP-358,774, an inhibitor of epidermal growth factor receptor tyrosine kinase” (Cancer Res, 1997).
